We go through 27 substances from US8603966B2, “Amino acid-based compounds, their methods of use, and methods of screening” (The Administrators of the Tulane Educational Fund, priority 2009, dated 2013).

The subject of series [1] is Chinese Hamster Ovary (CHO) cells. The series is described as follows: Cell penetration by laser scanning confocal fluorescence microscopy. In kind it is cell-based. The following applies: for Cell Penetrating Half-time: SD ±10 min. On the procedure:
(§1) Laser Scanning Confocal Fluorescence Microscopy: Some translocating peptides were synthesized and labeled with the fluorescent dye TAMRA on either their amino terminus (N-labeled) or on a C-terminal cysteine residue (C-labeled). Live Chinese Hamster Ovary (CHO) cells were used to assess the ability of the labeled peptides to translocate across living cell membrane into the cells without causing toxicity.
CHO cells were incubated with peptide that was labeled on a C-terminal cysteine residue with the red fluorescent dye TAMRA. Cells and labeled peptide were incubated for 10 minutes in minimal media at 37° C. Cells were then washed to remove labeled peptide from the solution. The minimal media was replaced and 1 μM NBD (7-nitrobenz-2-oxa-1,3-diazol-4-yl) labeled lyso-phosphatidylthanolamine was added to the cells to label the plasma membrane. Labeled peptide concentrations for the panels are: A) 0 μM, B) 2 μM, C) 5 μM, and D) 10 μM. The scale bar represents 50 μm.
Panels A-G of FIG. 6 show representative CFM images monitoring the translocation of a labeled peptide with SEQ ID NO. 04 (synthesized with all D-amino acids for the chiral amino acids) in 10 minute intervals. CHO cells were incubated with the TAMRA-labeled peptide in minimal media and monitored over time at 25° C. without washing. The incubation times for the panels are: A) 5 min., B) 15 min., C) 25 min., D) 35 min., E) 45 min., F) 55 min., and G) 65 min. […] The scale bar represents 50 μm.
(§2) In this experiment, the externally added labeled peptide has not been washed away so the solution itself is fluorescent due to added TAMRA-labeled peptide. The black silhouettes in Panel A show the location of cells; before labeled-peptide entry, there is no fluorescence inside the cells.
All labeled peptides tested are able to translocate across living cell membranes and carry the large polar dye molecule TAMRA with them into the cell. Cell penetration was assessed by measuring TAMRA intensity inside CHO cells during incubation with the peptides in Table 4 and comparing intensity inside the cells with the external solution. Incubations were done at either 25° C. or 37° C., at concentrations listed. The half-times for penetration were determined, as shown in Table 5; the half-times have standard deviations of ±10 min. Based on final intensities inside the cells, all labeled peptides tested have similar cell penetrating activity at concentrations tested and at the temperatures tested. Toxicity was determined using the same conditions (e.g., solution and temperature) and concentrations as the cell penetration experiments. Toxicity was assessed by imaging at least 100 cells and counting cells with altered cell morphology, loss of confluence, or loss of adherence to substrate. In some experiments, the non-membrane permeable DNA dye SYTOX green was used to assess membrane integrity. In most cases, no measurable increase in toxicity or membrane integrity over control samples was detectable; this is indicated by the <5% in Table 5.

Series [2] in a line: High throughput screen: Tb3+/DPA leakage from liposomes. The following applies: labeled peptide:lipid 1:300; % of Tb3+ released after 60 minutes vs Triton-X 100 solubilized control (100% leakage). Here is the method:
(§3) High throughput screening: For high throughput screening, 100 mM lipid bilayer vesicles were prepared by extrusion in the presence of 50 mM Tb^3+/citrate and 10 mg/mL chymotrypsin. The external Tb^3+/citrate and chymotrypsin were removed by gel filtration. To make the screening solution, 50 μM dipicolinic acid (DPA) and 1 μM α 1-antitrypsin were added to the external medium. The lipid composition was about 90% palmitoyloleoylphostadidylcholine (POPC) and about 10% palmitoyloleoyl phostadidylglycerol (POPG).
(§4) The combinatorial labeled peptide library was screened to identify and measure properties of translocation and leakage (e.g., pore-formation). Beads from the synthesis were exposed to longwave UV to cleave the peptide from the resin. The reaction added an amine group to the labeled peptide at the site of cleavage, yielding a Gln residue. Beads were then separated into individual wells of a multiwell plate and the peptides were extracted into 5 μl of dry dimethylsulfoxide overnight. This cleaved approximately 0.75 nmol of labeled peptide from each bead, about half of the total labeled peptide on the bead. A chymotrypsin cleavage site was incorporated into the labeled peptides' design (FIG. 1) and when hydrolysis occurs the AMC fluorophore is released. The spectra of the free AMC fluorophore is red-shifted as compared to that of the peptide-AMC conjugate (FIG. 2). When a labeled peptide translocates, the chymotrypsin inside the vesicle catalyzes the hydrolysis of the peptide bond contributed by the AMC moiety (FIG. 3B). Translocation was monitored by the rate of accumulation of free AMC. In the case of leakage, interaction of the lanthanide metal terbium III (Tb^3+) with the aromatic chelator dipiccolinic acid (DPA) creates a complex that is fluorescent at low μM concentrations (FIG. 3A). By entrapping Tb^3+ and chymotrypsin inside the liposomes and then adding dipiccolinic acid and a chymotrypsin inhibitor to the external medium, a visual reporter system for translocation with and without membrane leakage was created that can detect as little as 5 pmol of labeled peptide.
(§5) To screen for solubility, the labeled peptide DMSO solution was diluted and incubated for 30 minutes before adding the screening solution. Free-AMC fluorescence was monitored at 450 nm emission (350 nm excitation) for 30 minutes and then the wells were read at 460 nm emission (280 nm excitation) for Tb^3+/DPA complex formation. Wells with the highest free AMC accumulation and/or Tb^3+/DPA fluorescence were sent to the Michigan State University Protein Core Facility for sequencing.
(§6) The screen was performed at a labeled peptide to lipid ratio of 1:300. […] In FIG. 4, the oval labeled “Leakage” indicates labeled peptides that show mostly leakage with a minimum of the relative rate of free AMC production. The oval labeled “Translocation” indicates labeled peptides that show a higher relative rate of free AMC production with a minimum of leakage. Roughly 24,000 beads were screened at 1:300 labeled peptide:lipid, a sequence coverage space of 90%. The labeled peptides indicating the highest translocation and highest % leakage were identified by Edman sequencing from the beads.
(§7) Free-AMC fluorescence was monitored at 450 nm emission (350 nm excitation) for 30 minutes and then the wells were read at 460 nm emission (280 nm excitation) for Tb^3+/DPA complex formation. Percent leakage is the % of Tb^3+ released from lipid vesicles after 60 minutes, compared to a Triton-X 100 detergent-solubilized control (100% leakage). […] Free AMC was determined in real time by monitoring the fluorescence of free AMC after vesicle addition using a BioTek Synergy II fluorescence plate reader. The two assays were performed on the same samples.

Series [3] in a line: High throughput screen: translocation into liposomes (free AMC production by entrapped chymotrypsin). The following applies: labeled peptide:lipid 1:300; rate divided by rate in chymotrypsin solution without inhibitor and liposomes. Here is the method:
as §3, §4, §5, §6, §7

Series [4] concerns Chinese Hamster Ovary (CHO) cells. It counts as cell-based.
Text: as §1, §2
All labeled peptides tested are able to translocate across living cell membranes and carry the large polar dye molecule TAMRA with them into the cell. Cell penetration was assessed by measuring TAMRA intensity inside CHO cells during incubation with the peptides in Table 4 and comparing intensity inside the cells with the external solution. Incubations were done at either 25° C. or 37° C., at concentrations listed. The half-times for penetration were determined, as shown in Table 5; the half-times have standard deviations of ±10 min. […] Toxicity was determined using the same conditions (e.g., solution and temperature) and concentrations as the cell penetration experiments. […]

No end group written: not given here.

With “Arg-Arg-Ile-Leu-Leu-Gln-Leu-Leu-Arg-Gly-Gln-Phe (RRILLQLLRGQF; not fully specified (C-terminus); printed as Arg-Arg-Ile-Leu-Leu-Gln-Leu-Leu-Arg-Gly-Gln-Phe) [SEQ ID NO: 10 (C-labeled), peptide labeled with the dye TAMRA on a C-terminal cysteine]”, in series [1] (25° C., 1.7-10 μM), the “Cell Penetrating Half-time” value was found to be 15 min.

As to “Arg-Arg-Ile-Leu-Leu-Gln-Leu-Leu-Leu-Gly-Gln-Phe (RRILLQLLLGQF; not fully specified (C-terminus); printed as Arg-Arg-Ile-Leu-Leu-Gln-Leu-Leu-Leu-Gly-Gln-Phe) [SEQ ID NO: 15 (C-labeled), peptide labeled with the dye TAMRA on a C-terminal cysteine]”, in series [1] (37° C., 1.7-5 μM), the “Cell Penetrating Half-time” value was less than 30 min.

With “Arg-Lys-Gly-Leu-Leu-Gln-Leu-Leu-Leu-Gly-Gln-Phe (RKGLLQLLLGQF; not fully specified (C-terminus); printed as Arg-Lys-Gly-Leu-Leu-Gln-Leu-Leu-Leu-Gly-Gln-Phe) [SEQ ID NO: 18 (C- labeled), peptide labeled with the dye TAMRA on a C-terminal cysteine]”, the “Cell Penetrating Half-time” value in series [1] (37° C., 1.7-5 μM) is less than 30 min.

Turning to PKILLFKLLGQF [SEQ ID NO: 12], the “% Leakage” value in series [2] amounted to 1.6%. Moreover, the “Relative Rate of Free AMC Production” value in series [3] was 1.7.

As to PKQLLRLLLGQF [SEQ ID NO: 20], in series [2], the “% Leakage” value was 90%. Also, the “Relative Rate of Free AMC Production” value in series [3] stood at 0.4.

Turning to PLGYLFLLRGQF [SEQ ID NO: 05], the “% Leakage” value in series [2] is 6.0%. In addition, in series [3], the “Relative Rate of Free AMC Production” value amounted to 1.9.

Turning to PLILLRLLRGQF [SEQ ID NO: 03], the “% Leakage” value in series [2] came to 1.7%. Further, in series [3], the “Relative Rate of Free AMC Production” value was determined as 2.1.

For PLIYPFLRLGQF [SEQ ID NO: 09], the “% Leakage” value in series [2] is given as −0.2%. Moreover, the “Relative Rate of Free AMC Production” value in series [3] is on record as 1.7.

Turning to PLRLLRLLRGQF [SEQ ID NO: 11], the “% Leakage” value in series [2] is listed as 5.2%. Also, in series [3], the “Relative Rate of Free AMC Production” value is recorded as 2.0.

As for PLRLRFLLRGQF [SEQ ID NO: 07], the “% Leakage” value in series [2] was −4.5%. Further, in series [3], the “Relative Rate of Free AMC Production” value is given as 1.6.

Regarding PRILLRLLLGQF [SEQ ID NO: 16], the “% Leakage” value in series [2] stood at 89%. Also, in series [3], the “Relative Rate of Free AMC Production” value is listed as 1.0.

For PRIYLRLLLGQF [SEQ ID NO: 14], the “% Leakage” value in series [2] turned out to be 82%. Besides, the “Relative Rate of Free AMC Production” value in series [3] was found to be 1.1.

In the case of PRKLLQLLLGQF [SEQ ID NO: 13], the “% Leakage” value in series [2] was determined as 86%. Further, the “Relative Rate of Free AMC Production” value in series [3] was 0.6.

Turning to “Pro-Leu-Ile-Leu-Leu-Arg-Leu-Leu-Arg-Gly-Gln-Phe (PLILLRLLRGQF; not fully specified (C-terminus); printed as Pro-Leu-Ile-Leu-Leu-Arg-Leu-Leu-Arg-Gly-Gln-Phe) [SEQ ID NO: 03 (C-labeled), peptide labeled with the dye TAMRA on a C-terminal cysteine]”, the “Cell Penetrating Half-time” value in series [1] (37° C., 1.7-5 μM) is less than 30 min.

“Pro-Leu-Ile-Tyr-Leu-Arg-Leu-Leu-Arg-Gly-Gln-Phe”: the “toxicity (shape and coherence of the cells)” value in series [4] is “toxicity is minimal”. Further, in series [1] (FIG. 6, 25° C., minimal media, without washing), the “half-time for cell entry” value is 20 to 30 min. Further, in series [1] (FIG. 6, 25° C., without washing), the “time at which cell penetration occurs” value was “within a few minutes”.

As for “Pro-Leu-Ile-Tyr-Leu-Arg-Leu-Leu-Arg-Gly-Gln-Phe [SEQ ID NO: 04 (C-labeled)]”, the “Cell Penetrating Half-time” value in series [1] (37° C., 1.7-10 μM) came out at 20 min.

Turning to “Pro-Leu-Ile-Tyr-Leu-Arg-Leu-Leu-Arg-Gly-Gln-Phe [SEQ ID NO: 04]”, in series [2], the “% Leakage” value is on record as 2.8%. Also, the “Relative Rate of Free AMC Production” value in series [3] turned out to be 2.3.

Regarding RKGLLQLLLGQF [SEQ ID NO: 18], the “% Leakage” value in series [2] is 92%. In addition, the “Relative Rate of Free AMC Production” value in series [3] is 0.3.

RKILLRLLRGQF [SEQ ID NO: 02]: the “% Leakage” value in series [2] is on record as −3.0%. In addition, in series [3], the “Relative Rate of Free AMC Production” value is listed as 1.6.

On to RKRLLQLLLGQF [SEQ ID NO: 21], for which, in series [2], the “% Leakage” value stood at 84%. Also, the “Relative Rate of Free AMC Production” value in series [3] came out at 0.7.

Regarding RLILLFRRLGQF [SEQ ID NO: 06], in series [2], the “% Leakage” value is listed as 7.2%. The “Relative Rate of Free AMC Production” value in series [3] worked out at 2.1.

For RLILRQLLLGQF [SEQ ID NO: 19], in series [2], the “% Leakage” value amounted to 102%. In addition, the “Relative Rate of Free AMC Production” value in series [3] is given as 1.6.

In the case of RLILRQLLRGQF [SEQ ID NO: 17], the “% Leakage” value in series [2] is recorded as 115%. The “Relative Rate of Free AMC Production” value in series [3] is recorded as 1.6.

With RLIRLFLLRGQF [SEQ ID NO: 08], the “% Leakage” value in series [2] was determined as 5.0%. In addition, the “Relative Rate of Free AMC Production” value in series [3] came to 2.1.

As to RLIYLRLLRGQF [SEQ ID NO: 01], in series [2], the “% Leakage” value is 24%. For the same substance, the “Relative Rate of Free AMC Production” value in series [3] came to 3.4.

Regarding RRILLQLLLGQF [SEQ ID NO: 15], the “% Leakage” value in series [2] was 105%. Moreover, in series [3], the “Relative Rate of Free AMC Production” value was found to be 0.0.

As for RRILLQLLRGQF [SEQ ID NO: 10], the “% Leakage” value in series [2] came to 26%. The “Relative Rate of Free AMC Production” value in series [3] is on record as 2.3.
